The text below walks through data of PMC10140166 (The Journal of Biological Chemistry, 2023).

The test system of data set [1] is PRV. The format is cell-based, pseudorabies virus.
The next data set deals with HSV-1. The conditions noted are these: read-out: IC50 against HSV-1; cited from earlier work.
Data set [2] deals with PRV. Nature of the data set: microbe, parasite or virus in culture. The format is cell-based, pseudorabies virus. The note with it: for IC50: Suid alphaherpesvirus 1, HeLa, 24 h.
A short description of the next data set: in vitro. The note with it: human.
Another data set concerns HSV-2. The note with it: read-out: IC50 against HSV-2; cited from earlier work.
The next data set relates to enterovirus 71. The conditions noted are these: read-out: IC50 against enterovirus 71; cited from earlier work.
The subject of another data set is HCMV. The note with it: read-out: IC50 against HCMV; cited from earlier work.

Values joined by “and” are separate entries in the source; they are usually repeats but may differ in a detail not shown here. Equal entries are not always repeated. Where only a bound is given, the exact number is not on record here.

`CCN(c1nc(N)c(C(=O)N=C(N)N)nc1Cl)C(C)C` [EIPA, 5-[N-ethyl-N-isopropyl] amiloride]: the “viral protein load (US9 relative to β-actin, densitometry)” value with PRV [1] turned out to be 0.21 ± 0.01. In addition, the “cytotoxicity / cell viability at the concentration used” value (“cytotoxicity / cell viability” for short) in the data set with DF-1 cells was “without cytotoxicity”.
For the compound Mazamine A, the half-maximal inhibitory concentration (IC50) in the data set on HSV-1 was 1 µM.
As for `Nc1nc2c(ncn2COCCO)c(=O)[nH]1` [Acyclovir], in the data set with PRV [2], the “reduction (positive control), primary screening” value was found to be 98% and the IC50 stood at 2.81 ± 0.3 µM.
Consider manzamine A monotartrate, for which the IC50 in the data set with HSV-1 was 0.1 µM.
In the case of `Oc1cccc2c1[nH]c1c(C3=C[C@@]4(O)CC/C=C\CCCCN5CC[C@@H]3[C@]3(C[C@@H]6/C=C\CCCCN6[C@H]34)C5)nccc12` [8-hydroxymanzamine A], in the data set on HSV-1, the half-maximal inhibitory concentration (IC50) was 3.7 µM.
As for `CCn1c2ccccc2c2cc(Nc3ccnc(NCCCN4CCOCC4)n3)ccc21` [EHop-016], the “viral protein load (Western blot)” value in the data set with PRV [1] is reported as “reduced the viral protein load”. Moreover, the “cytotoxicity / cell viability” value in the data set with DF-1 cells was “without cytotoxicity”.
In the case of `COc1cc(N2CCN(C)CC2)ccc1Nc1nccc(-c2cn(C)c3cnccc23)n1` [AZ191], the “reduction of production of infectious virus particles vs DMSO” value with PRV [2] came to 1.1 Log. Further, in the data set with DF-1 cells, the “cytotoxicity / cell viability” value is on record as “did not affect cell viability”.
Turning to `COc1ccc2c3ccnc(C)c3n(C)c2c1` [Compound 3, 9-methyl-harmine], in the data set on PRV [2], the “inhibitory rate (reduction vs DMSO-treated cells), primary screening” value was > 90% and > 99%; half-maximal inhibition (IC50) was put at 0.52 ± 0.04 µM. The compound also displayed a CC50 in “in vitro” above 30 µM.
As for manzamine A monohydrochloride, in the data set with HSV-1, the IC50 is 0.1 µM.
For ML-141, the “viral protein load (Western blot)” value in the data set on PRV [1] is listed as “reduced the viral protein load”. Besides, in the data set with DF-1 cells, the “cytotoxicity / cell viability” value is on record as “without cytotoxicity”.
Take `COc1ccc2c(c1)[nH]c1c(C)nccc12` [Compound 2, harmine]: the “inhibitory rate (reduction vs DMSO-treated cells), primary screening” value with PRV [2] is reported as above 90%. Also, the “reduction of production of infectious virus particles vs DMSO” value in the data set on PRV [2] is on record as 2.3 Log. Also, the IC50 in the data set on PRV [2] was 1.19 ± 0.09 µM; in the data set with HSV-1, 4.56 µM; with HSV-2 it was 1.47 µM; with enterovirus 71, 10 ± 2.5 µM; in the data set with HCMV, 0.71 ± 0.019 µM. Also, in the data set on DF-1 cells, the “cytotoxicity / cell viability” value was “without cytotoxicity”. The CC50 in the data set “in vitro” is above 30 µM.

The term IC50 denotes the concentration that gives 50% inhibition.
